For one assay, the target named is human recombinant CTSC (Homo sapiens (Human), UniProt P53634). Nature of the assay: CTSC inhibition assay (in vitro), fluorescent substrate GF-AFC. The settings on record: 30 μmol/L GF-AFC, pH 5.0, 25° C. The assay is classed as biochemical. How it is done: 1. CTSC Inhibition Assay (In Vitro)
A test specimen was evaluated by a CTSC inhibition assay using a fluorescent substrate GF-AFC (Gly-Phe-7-Amino-4-trifluoromethylcoumarin, MP Biomedical, 03AFC03325). Since the GF-AFC is converted by CTSC to aminotrifluoromethylcoumarin having a specific fluorescence wavelength and the produced amount is proportional to CTSC activity, quantitative analysis was performed by measuring a fluorescence intensity with a plate reader. CTSC inhibition assay for each compound was performed using a polystyrene-made non-adhesive surface-treated black 384 well plate under the following conditions.
A human recombinant CTSC (R&D systems, 1071-CY) was dissolved in a CTSC active cocktail (20 ng/mL of human recombinant cathepsin L (R&D systems, 952-CY, 25 mmol/L MES/NaOH (pH: 6.0), 5 mmol/L dithiothreitol (DTT)) so as to be 100 ng/mL and incubated at 18° C. for 30 minutes. The solution was diluted with a CTSC assay buffer (50 mmol/L MES/NaOH (pH: 5.0), 50 mmol/L NaCl, 0.001% Triton X-100, mmol/L DTT) so as to be 2 ng/mL in a case of performing CTSC inhibition assay.
The test specimen was dissolved in dimethylsulfoxide (DMSO) at 10 mmol/L to prepare a stock solution. In a case where a solution in which the stock solution was diluted 15-fold with DMSO was used as the maximum evaluation concentration (0.667 mmol/L), 5-fold dilution was repeated in DMSO from the solution to prepare a serially diluted solution. 248.8 μL of the CTSC assay buffer was added to 1.12 μL of the serially diluted sample prepared in the DMSO to prepare a solution of a CTSC inhibition assay compound.
The final composition of the CTSC inhibition assay mixture was 0.66 ng/mL activated CTSC, 50 mmol/L MES/NaOH (pH: 5.0), 50 mmol/L NaCl, 0.001% Triton X-100, 5 mmol/L DTT, 30 μmol/L GF-AFC, and 0.15% DMSO, and the procedure was as follows. That is, 4 μL of the compound solution and 4 μL of the 2 ng/mL activated CTSC solution were mixed with each other in a 384 well plate and incubated at 25° C. for 30 minutes. Thereafter, 4 μL of the GF-AFC solution dissolved in the CTSC assay buffer was added to the mixture so as to be 90 μmol/L. After mixing to be uniform, a fluorescence emission intensity at 505 nm in a case of being excited at 390 nm after incubating at 25° C. for 1 hour was measured with a plate reader. A 4-parameter regression analysis was performed with GraphPad Prism (manufactured by GraphPad Software) from a plot of the fluorescence intensity at 505 nm and the sample concentration, and an IC50 value was calculated.
Results of test compounds of Formula (I) are shown in Table 1 as IC50 (nM) values for which 50% inhibition concentration is calculated based on CTSC inhibition (%). In the table, Ex indicates an example number.

The next assay has as its target CTSC in U937 cells (Homo sapiens (Human), UniProt P53634). In words: Intracellular CTSC inhibition assay (in vitro), LLOMe-induced cell death in U937 cells. The assay is classed as cell-based. Conditions: 3 hours culture, CellTiter-Glo. How it is done: 2. Intracellular CTSC Inhibition Assay (In Vitro)
A test specimen was evaluated by a degree of cell death in a case where a substrate LLOMe (L-Leucyl-L-Leucine methyl ester, hydrobromide salt, Sigma, 555045152) was added to U937 cells. The LLOMe is taken up into the cells by endocytosis and cleaved by CTSC. A product thereof induces lysosomal damage in cells and causes cell death in leukocytes and the like. Therefore, since the degree of cell death correlates with an amount of degradation of LLOMe, that is, with CTSC activity, by quantitatively analyzing the cell death, CTSC inhibitory activity of the test specimen in the cell was determined. CTSC inhibition assay was performed using a polystyrene-made white 384 well plate.
As the test specimen, a stock solution dissolved in DMSO was prepared so as to be 0.2 mmol/L, and in a case where a solution in which the stock solution was diluted 50-fold with a RPMI-1640 medium including 10% FBS was used as the maximum evaluation concentration (4000 nmol/L), a serially diluted solution was prepared by diluting the solution 3-fold with the medium. Thereafter, a 4-fold concentrated test specimen solution with the target final concentration was prepared.
U937 cells were cultured in a RPMI-1640 medium including 10% FBS, and diluted to prepare 90,000 cells/mL of cell suspension on the day of assay. 10 μL of the cell suspension was seeded per well. Next, 10 μL of the test specimen solution having a concentration 4 times the target final concentration was added thereto, and the mixture was allowed to stand for 30 minutes. Thereafter, 20 μL of a 300 μmol/L LLOMe solution dissolved in a RPMI-1640 medium including 10% FBS was added thereto, and the cells were cultured for 3 hours. After completion of the culture, 40 μL of CellTiter-Glo (registered trademark) reagent (Promega, G7570) was added to each well and mixed. After 15 minutes, 20 μL of the reaction solution in each well was transferred to a white 384 well plate, and a chemiluminescence intensity was measured with a plate reader. A 4-parameter regression analysis was performed with GraphPad Prism (manufactured by GraphPad Software) from a plot of the luminescence intensity and the sample concentration, and an IC50 value was calculated.
Results of test compounds of Formula (1) are shown in Table 2 as IC50 (nM) values for which 50% inhibition concentration is calculated based on CTSC inhibition (%). In the table, Ex indicates an example number.
In general terms: Cellular ATP, detected with luciferase, serves as a proxy for viable cell number.

Sequence of human recombinant CTSC (P53634 25-134): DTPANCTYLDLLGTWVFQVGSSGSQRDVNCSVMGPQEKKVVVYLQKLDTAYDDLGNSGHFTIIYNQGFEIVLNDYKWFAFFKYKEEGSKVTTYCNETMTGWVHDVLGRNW
Sequence of human recombinant CTSC (P53634 231-394): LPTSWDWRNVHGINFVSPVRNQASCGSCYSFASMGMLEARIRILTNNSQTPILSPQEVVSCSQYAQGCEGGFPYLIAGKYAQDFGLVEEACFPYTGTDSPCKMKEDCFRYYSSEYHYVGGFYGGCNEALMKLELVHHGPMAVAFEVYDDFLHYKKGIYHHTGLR
Sequence of human recombinant CTSC (P53634 395-463): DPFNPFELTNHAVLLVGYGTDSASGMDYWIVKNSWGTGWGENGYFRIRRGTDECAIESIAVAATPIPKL
Sequence of CTSC in U937 cells (P53634 25-463): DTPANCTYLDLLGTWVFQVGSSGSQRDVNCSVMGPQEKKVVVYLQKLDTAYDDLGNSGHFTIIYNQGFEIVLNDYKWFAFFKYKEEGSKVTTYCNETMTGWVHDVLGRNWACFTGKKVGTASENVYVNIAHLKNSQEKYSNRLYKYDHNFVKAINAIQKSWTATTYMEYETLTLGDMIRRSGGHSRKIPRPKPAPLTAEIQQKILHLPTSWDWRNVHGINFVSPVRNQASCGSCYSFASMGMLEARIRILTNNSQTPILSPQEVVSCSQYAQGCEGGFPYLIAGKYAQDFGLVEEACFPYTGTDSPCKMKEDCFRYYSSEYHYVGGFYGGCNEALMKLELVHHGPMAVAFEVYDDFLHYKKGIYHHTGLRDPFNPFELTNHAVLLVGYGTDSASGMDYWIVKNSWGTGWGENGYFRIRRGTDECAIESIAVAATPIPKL

What is called IC50 is the concentration at which inhibition is half-maximal. Regarding `CC1(C)CN[C@H](C(=O)N2CCC(c3nc(C4CCC(F)(F)CC4)no3)(C(F)(F)F)CC2)C[C@H]1O` [Example 57], the results for the half-maximal inhibitory concentration (IC50) at human recombinant CTSC and against CTSC in U937 cells were 3.57 nM and 0.55 nM, respectively.
Turning to `CC(C)C1(c2noc(C3CCC3)n2)CCN(C(=O)[C@@H]2C[C@@H](O)C3(CCC3)CN2)CC1` [Example 58], the results for the IC50 on human recombinant CTSC and against CTSC in U937 cells were 2.55 nM and 0.56 nM, respectively.
In the same order, the values of `O=C([C@@H]1C[C@@H](O)C2(CCC2)CN1)N1CCC(c2noc(C3CCCCO3)n2)(C(F)(F)F)CC1` (stereo partly drawn) [Example 59] are 3.61 nM and 0.7 nM.
The matching figures for `O=C([C@@H]1C[C@@H](O)C2(CCC2)CN1)N1CCC(c2noc(C3CCCOC3)n2)(C(F)(F)F)CC1` (stereo partly drawn) [Example 60]: 4.09 nM and 1.39 nM.
In the same order, the values of `O=C([C@@H]1C[C@@H](O)C2(CCC2)CN1)N1CCC(c2noc(C3CCOCC3)n2)(C(F)(F)F)CC1` [Example 61] are 5.72 nM and 1.75 nM.
For `O=C([C@@H]1C[C@@H](O)C2(CCC2)CN1)N1CCC(c2noc(C3CCCO3)n2)(C(F)(F)F)CC1` (stereo partly drawn) [Example 62], the half-inhibitory concentration (IC50) at human recombinant CTSC came to 6.39 nM; at CTSC in U937 cells, 1.62 nM.
In the case of `O=C([C@@H]1C[C@@H](O)C2(CCC2)CN1)N1CCC(c2noc(C3CCC(F)(F)CO3)n2)(C(F)(F)F)CC1` (stereo partly drawn) [Example 63, (4-(5-(5,5-Difluorotetrahydro-2H-pyran-2-yl)-1,2,4-oxadiazol-3-yl)-4-(trifluoromethyl)piperidin-1-yl)((7S,9R)-9-hydroxy-6-azaspiro[3.5]nonan-7-yl)methanone], the results for the half-maximal inhibitory concentration (IC50) on human recombinant CTSC and on CTSC in U937 cells were 1.85 nM and 1.01 nM, respectively.
For the compound `O=C([C@@H]1C[C@@H](O)C2(CCC2)CN1)N1CCC(c2noc(C3CCC(F)(F)CO3)n2)(C(F)(F)F)CC1` (stereo partly drawn) [Example 64, (4-(5-(5,5-Difluorotetrahydro-2H-pyran-2-yl)-1,2,4-oxadiazol-3-yl)-4-(trifluoromethyl)piperidin-1-yl)((7S,9R)-9-hydroxy-6-azaspiro[3.5]nonan-7-yl)methanone], the 50% inhibitory concentration (IC50) at human recombinant CTSC is 0.69 nM; on CTSC in U937 cells it was 0.74 nM.
In the same order, the values of `O=C([C@@H]1C[C@@H](O)C2(CCC2)CN1)N1CCC(c2nc(C3CC(F)(F)C3)no2)(N2CCOCC2)CC1` [Example 65] are 4.15 nM and 30.1 nM.
The matching figures for `O=C([C@@H]1C[C@@H](O)C2(CCC2)CN1)N1CCC(c2nnn(C3CCC(F)(F)CC3)n2)(C(F)(F)F)CC1` [Example 66]: 1.05 nM and 0.46 nM.
In the same order, the values of `O=C([C@@H]1C[C@@H](O)C2(CCC2)CN1)N1CCC(c2nnn(C3CC(F)(F)C3)n2)(C(F)(F)F)CC1` [Example 67, (4-(2-(3,3-Difluorocyclobutyl)-2H-tetrazol-5-yl)-4-(trifluoromethyl)piperidin-1-yl)((7S,9R)-9-hydroxy-6-azaspiro[3.5]nonan-7-yl)methanone] are 3.25 nM and 1.41 nM.
Regarding `O=C([C@@H]1C[C@@H](O)C2(CCC2)CN1)N1CCC(c2noc(C3CC(F)(F)C3)n2)(c2nccs2)CC1` [Example 68], the IC50 came to 2.92 nM on human recombinant CTSC and 5.44 nM against CTSC in U937 cells.
The matching figures for `O=C([C@@H]1C[C@@H](O)C2(CCC2)CN1)N1CCC(c2noc(C3CC(F)(F)C3)n2)(C2CC2)CC1` [Example 69]: 1.73 nM and 1.44 nM.
The matching figures for `O=C([C@@H]1C[C@@H](O)C2(CCC2)CN1)N1CCC(c2noc(C3CC(F)(F)C3)n2)(c2cccs2)CC1` [Example 70]: 1.63 nM and 1.1 nM.
The matching figures for `Cc1cnn(C2(c3noc(C4CC(F)(F)C4)n3)CCN(C(=O)[C@@H]3C[C@@H](O)C4(CCC4)CN3)CC2)c1` [Example 71]: 3.73 nM and 5.63 nM.
As for `CC(C)C1(c2noc(C34CC(C3)C4)n2)CCN(C(=O)[C@@H]2C[C@@H](O)C3(CCC3)CN2)CC1` [Example 72], the IC50 is 2.48 nM at human recombinant CTSC and 0.31 nM against CTSC in U937 cells.
In the same order, the values of `O=C([C@@H]1CC[C@@]2(CCO2)CN1)N1CCC(c2noc(C3CCC(F)(F)CC3)n2)(C(F)(F)F)CC1` [Example 73] are 3.28 nM and 4.05 nM.
In the same order, the values of `O=C([C@@H]1C[C@@H](O)C2(CCC2)CN1)N1CCC(c2noc(C3CCC(F)(F)CC3)n2)(C2CC2)CC1` [Example 74] are 0.87 nM and 0.38 nM.
The matching figures for `CN(C)C1(c2nc(C3CC(F)(F)C3)no2)CCN(C(=O)[C@@H]2C[C@@H](O)C3(CCC3)CN2)CC1` [Example 75]: 2.21 nM and 5.01 nM.
As to `CC1(O)CC[C@@H](C(=O)N2CCC(c3noc(C4CC(F)(F)C4)n3)(C(F)(F)F)CC2)NC1` (stereo partly drawn) [Example 76], the IC50 on human recombinant CTSC is 187 nM; against CTSC in U937 cells, > 111 nM.
The matching figures for `CC(=O)N(C)C1(c2nc(C3CC(F)(F)C3)no2)CCN(C(=O)[C@@H]2C[C@@H](O)C3(CCC3)CN2)CC1` [Example 77]: 3.79 nM and > 333 nM.
The matching figures for `CN(C1(c2nc(C3CC(F)(F)C3)no2)CCN(C(=O)[C@@H]2C[C@@H](O)C3(CCC3)CN2)CC1)S(C)(=O)=O` [Example 78]: 5.68 nM and 129 nM.
The matching figures for `O=C([C@@H]1C[C@@H](O)C2(CCC2)CN1)N1CCC(c2ccsc2)(c2noc(C3CC(F)(F)C3)n2)CC1` [Example 79]: 2.17 nM and 0.75 nM.
`CC1(C)CN[C@H](C(=O)N2CCC(c3noc(C4CCC(F)(F)CC4)n3)(C3CC3)CC2)C[C@H]1O` [Example 80, (4-Cyclopropyl-4-(5-(4,4-Difluorocyclohexyl)-1,2,4-oxadiazol-3-yl)piperidin-1-yl)((2S,4R)-4-hydroxy-5,5-dimethylpiperidin-2-yl)methanone]: the half-maximal inhibitory concentration (IC50) turned out to be 1.86 nM at human recombinant CTSC and 0.65 nM against CTSC in U937 cells.
The matching figures for `O=C([C@@H]1C[C@@H](O)C2(CCC2)CN1)N1CCC(c2cn(C3CCC(F)(F)CC3)nn2)(C(F)(F)F)CC1` [Example 81]: 1.31 nM and 13.7 nM.
In the same order, the values of `CC(C)C1(c2noc(C3CCC(F)(F)CC3)n2)CCN(C(=O)[C@@H]2C[C@@H](O)C3(CCC3)CN2)CC1` [Example 82] are 0.93 nM and 0.25 nM.
The matching figures for `Cc1ccc(C2(c3nc(C4CC(F)(F)C4)no3)CCN(C(=O)[C@@H]3C[C@@H](O)C4(CCC4)CN3)CC2)cc1` [Example 83]: 1.47 nM and 0.23 nM.

The values above are taken from patent US12522593B2, “Azacycloalkyl carbonyl cyclic amine compound” (Alivexis, Inc., priority 2022, dated 2026).
